Tests used:
AAC(6′)-APH(2^″) = biological target: T1, AAC(6′)-APH(2^″) (Staphylococcus aureus, UniProt P0A0C1); assay: UPLC-qTOF-HR-MS of […]'-N-acylation product, structure confirmed by NMR; assay type: biochemical; conditions: acyl donor; one-pot with GenN, amikacin 2 mM, SAM 2 mM, 50 mM Tris-HCl pH 7.5, 30 °C, 12 h, enzyme 500 μM
T1 construct: gene aacA-aphD; codon-optimized synthetic gene in pET15b, His-tagged, expressed in E. coli BL21(DE3), Ni-NTA purified; bifunctional enzyme

GenN = biological target: T2, GenN (Micromonospora echinospora, UniProt Q2MG72); assay: UPLC-qTOF-HR-MS of methylation product, structure confirmed by NMR; assay type: biochemical; conditions: SAM 2 mM, amikacin 2 mM, 50 mM Tris-HCl pH 7.5, 30 °C, 12 h, enzyme 500 μM
T2 construct: codon-optimized synthetic gene in pJExpress404, His-tagged, expressed in E. coli BL21(DE3), Ni-NTA purified
T2 sequence (Q2MG72 1-321): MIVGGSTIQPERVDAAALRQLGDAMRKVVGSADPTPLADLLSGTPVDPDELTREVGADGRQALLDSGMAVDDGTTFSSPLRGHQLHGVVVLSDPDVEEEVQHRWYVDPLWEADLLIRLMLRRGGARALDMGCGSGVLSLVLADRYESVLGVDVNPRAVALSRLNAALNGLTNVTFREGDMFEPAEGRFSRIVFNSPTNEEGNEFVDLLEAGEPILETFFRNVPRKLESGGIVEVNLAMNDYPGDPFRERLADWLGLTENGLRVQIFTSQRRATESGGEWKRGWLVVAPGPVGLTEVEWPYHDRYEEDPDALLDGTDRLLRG

T1 sequence (P0A0C1 whole entry): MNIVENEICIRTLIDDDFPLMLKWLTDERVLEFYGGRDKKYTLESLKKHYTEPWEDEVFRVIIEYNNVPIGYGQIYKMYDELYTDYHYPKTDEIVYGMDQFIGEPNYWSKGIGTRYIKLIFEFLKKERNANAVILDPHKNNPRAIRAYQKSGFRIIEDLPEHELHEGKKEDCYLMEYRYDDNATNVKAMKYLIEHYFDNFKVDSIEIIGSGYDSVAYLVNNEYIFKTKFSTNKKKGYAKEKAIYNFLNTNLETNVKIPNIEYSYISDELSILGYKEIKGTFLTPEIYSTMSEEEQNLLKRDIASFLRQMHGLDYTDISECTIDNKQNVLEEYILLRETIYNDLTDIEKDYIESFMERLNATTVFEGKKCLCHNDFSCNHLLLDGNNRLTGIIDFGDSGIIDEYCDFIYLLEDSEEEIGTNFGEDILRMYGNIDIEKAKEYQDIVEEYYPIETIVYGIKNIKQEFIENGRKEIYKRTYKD

Compound	conversion yield (AAC(6′)-APH(2^″))	conversion yield (GenN)
CC(=O)SCCNC(=O)CCNC(=O)[C@H](O)C(C)(C)COP(=O)(O)OP(=O)(O)OC[C@H]1O[C@@H](n2cnc3c(N)ncnc32)[C@H](O)[C@@H]1OP(=O)(O)O [acetyl-CoA]	Incubation with acetyl-CoA and propionyl-CoA as cosubstrates led to the formation of new UPLC peaks	
NCC[C@H](O)C(=O)N[C@@H]1C[C@H](N)[C@@H](O[C@H]2O[C@H](CN)[C@@H](O)[C@H](O)[C@H]2O)[C@H](O)[C@H]1O[C@H]1O[C@H](CO)[C@@H](O)[C@H](N)[C@H]1O [amikacin]		Amikacin was an excellent substrate for SAM-dependent methylation by GenN
CCC(=O)SCCNC(=O)CCNC(=O)[C@H](O)C(C)(C)COP(=O)(O)OP(=O)(O)OC[C@H]1O[C@@H](n2cnc3c(N)ncnc32)[C@H](O)[C@@H]1OP(=O)(O)O [propionyl-CoA]	Incubation with acetyl-CoA and propionyl-CoA as cosubstrates led to the formation of new UPLC peaks	
